This is an account of results in patent publication US20230391727A1, “ANALOGUES OF PENTAMIDINE AND METHODS FOR TREATING INFECTIONS” (Auransa Inc., priority 2020, published 2023).

Test [1] can be described thus: Anti-fungal MIC assay, summary of first round. The test is classed as cell-based. The note with it: read-out: Isolate MIC (100%); range over isolates of the first round of testing. As for the experimental part:
The first round of testing included Candida parapsilosis, Candida krusei, Paecilomyces variotii, Candida albicans, Aspergillus fumigatus, and Blastomyces dermatitidis. […] The second round of testing included Candida parapsilosis, Candida krusei, Candida albicans, Candida auris, Candida glabrata, Candida guilliermondii, and Cryptococcus neoformans.
Stock solutions of the investigational agent were prepared at concentrations 100-times the highest concentration to be tested (6400 μg/ml) using dimethyl sulfoxide. Aliquots of the stock solutions were dispensed into polystyrene vials and stored at −20° C.
The synthetic medium RPMI-1640 (with glutamine, without bicarbonate, and with phenol red) was used. The RPMI was buffered to a pH of 7.0+0.1 at 25° C. with 0.165M MOPS (3-[N-morpholino] propanesulfonic acid). Sterile U-shaped 96-well cell culture plates were used to perform the MIC assays. […]
Fungal isolates were grown on Sabouraud dextrose agar (yeasts) or potato flake agar (filamentous fungi) and cells were collected after an appropriate period of growth for each species being evaluated (e.g., 48-72 hours for yeasts and 7 days for filamentous fungi). The fungi were suspended in sterile distilled water, and the densities of the fungal suspension were read using a spectrophotometer and adjusted to an appropriate optical density specific for each fungal species. […]

Test [2] has as its system 17 clinically relevant bacterial strains. The test can be described thus: Checkerboard assays with rifampicin, summary over the panel. Type of test: cell-based. The note with it: compound 3 in combination of rifampicin; 17 test strains.
Excerpt: The 17 test strains/isolates were: (1) Serratia marcescens (ATCC 13880); (2) Salmonella typhimurium (ATCC 13311); (3) Salmonella choleraesuis (ATCC 10708); (4) Acinetobacter baumannii (ATCC BAA-1605); (5) A. baumannii (ATCC 17978); (6) A. baumannii (FDA-CDC AR-BANK#0088); (7) Citrobacter freundii (ATCC 8090); (8) Pseudomonas aeruginosa (BCCM 27647); (9) P. aeruginosa (BCCM 27648); (10) Escherichia coli (ATCC 25922); (11) E. coli (ATCC 10536); (12) Stenotrophomonas maltophilia (ATCC 13637); (13) Enterobacter cloacae (ATCC BAA-1143); (14) E. cloacae (ATCC 13047); (15) E. aerogenes (ATCC 13048); (16) Klebsiella pneumoniae (NCTC 13438); and (17) Klebsiella pneumoniae (FDA-CDC AR-BANK#0160). […]
The 17 test strains were grown on nutrient agar or tryptic soy agar (TSA) medium as below. […] The absorbance of the bacterial suspension was measured with a spectrophotometer at OD620nm, and then the suspension was adjusted to 1-2×10^8 CFU/mL in PBS. […] The actual microbial count in the assay ranged from 2˜8×10^5 CFU/mL as determined from dilution plating. […]
Assay plates were incubated and MIC endpoints were read as complete inhibition of visual growth. […]
FIC (Fraction Inhibitory Concentration) and FIC Index (FICI) values for each test condition and the average of FICI values of all pairwise combinations were calculated to determine if synergy or antagonism existed between the two substances. […]
The subject of another test is S. aureus VRS-2. Put plainly: S. aureus VRS-2 peritonitis infection model. Type of test: in vivo, female ICR mice. As for the experimental part:
The efficacy of compound 3 was evaluated in the S. aureus VRS-2 peritonitis infection model. The test article, compound 3 at 0.1, 0.3 and 1 mg/kg, was intraperitoneally (IP) administered twice at 2 and 16 h after infection; as well as once at 2 mg/kg at 2 h post-infection. The control reference agent, linezolid at 50 mg/kg, was orally (PO) administered once at 1 h post-infection. […] All animals in the vehicle group succumbed to infection between Day 1 to Day 2, resulting in 100% mortality, and a mean 15 h survival time. […] In the compound 3 at 1 mg/kg IP BID dose group, one out of eight animals survived till Day 7 of the study period, resulting in 13% survival rate, and a mean 33 h survival time.
For efficacy testing, the 0.4 mg/mL compound 3 solution was prepared by dissolving 1.21 mg of compound 3, corresponding to active ingredient of 1.02 mg with a correction factor of 1.19, in 2.55 mL of WFI. The 0.4 mg/mL compound 3 working solution was further diluted with WFI to generate three lower dosing solutions of 0.2, 0.06 and 0.02 mg/mL. All dosing solutions were soluble and colorless.
PDS supplied vancomycin and linezolid as reference controls for both MIC and in vivo studies. […] The 3.2 mg/mL linezolid 50× stock solution was prepared by dissolving 1.0 mg of linezolid in 0.313 mL of DMSO. Both solutions were colorless and soluble. For efficacy testing, one tablet of linezolid, at 600 mg, was dissolved in 12 mL of 1% Tween 80 in saline (0.9% NaCl) to generate a 50 mg/mL of stock solution. The 50 mg/mL linezolid stock solution was further diluted with 1% Tween 80 in 0.9% NaCl to generate the dosing solution of 5 mg/mL. Both solutions were insoluble with white color.
The S. aureus strain VRS-2 peritonitis infection model was performed with immunocompetent female ICR mice, weighing 22±2 g. All animals were specific pathogen free. The PDS standard protocol for preparing S. aureus cultures for mouse infection studies was followed. A 0.2 mL aliquot of a single-use glycerol stock (at −80° C.) was used to seed […] heart infusion (BHI) and then incubated at 35-37° C. with shaking (250 rpm) for 8 h. Bacterial cells in the 20 mL was pelleted by centrifugation (3,500×g) for 15 minutes, and then re-suspended in 10 mL cold phosphate buffer saline (PBS). The optical density, OD620 nm, was measured and used to guide dilution. The PBS suspensions were stored on ice for no more than 1 h prior to animal inoculation. The dilutions were performed by 1:1 dilution of BHI broth containing hog gastric mucin to obtain the target inoculum density, 1×10^8 CFU/mouse, per 0.5 mL with 5% mucin (final concentration). The actual colony count was determined by plating dilutions to nutrient agar (NA) plates followed by 20-24 h incubation at 35-37° C.
On Day 0, animals were infected with bacterial suspension with 5% mucin by intraperitoneal injection. The actual inoculum was 1.93×10^8 CFU/mouse with a target inoculum of 1×10^8 CFU/mouse in the peritonitis infection model. Test article, compound 3, was formulated in WFI and intraperitoneally (IP) administered with the dose schedule and concentrations indicated in the study design. Doses were administered once at 2 h post-infection or twice (BID) at 2 and 16 h post-infection. The animals were monitored for survival up to 7 days, twice daily (AM 9:00/PM 17:00). […]
Animals were monitored for mortality twice daily (AM 9:00/PM 17:00) for 7 days after infection. […]

Molecules are shown by their SMILES. ≈ marks a conversion by molar mass, not a printed value.

As to `N=C(N)c1ccc(CC[C@H]2CCC[C@@H](CCc3ccc(C(=N)N)cc3)C2)cc1` [Compound 3, 4,4′-(2,2′-((1R,3S)-cyclohexane-1,3-diyl)bis(ethane-2,1-diyl))dibenzimidamide], the minimum inhibitory concentration (MIC) in test [1] was in the range of 1 to 64 µg/mL (≈ 2.66 to 170 µM). In addition, in test [2], the “combination effect with rifampicin” value was “synergistic effects for most tested strains”. Moreover, the mean survival time with S. aureus VRS-2 (1 mg/kg IP BID (2 and 16 h after infection)) is given as 33 h. For the same molecule, the survival rate in the test on S. aureus VRS-2 (1 mg/kg IP BID (2 and 16 h after infection), Day 7) worked out at 13%. For the same molecule, in the test with S. aureus VRS-2 (0.1 and 0.3 mg/kg IP BID, and single dose of 2 mg/kg), the mortality is listed as 100%.
